Test results from patent US20240300900A1, “HYDROPHILIC AZADIBENZOCYCLOOCTYNE DERIVATIVES AND METAL-FREE CLICK REACTIONS WITH THESE HYDROPHILIC AZADIBENZOCYCLOOCTYNE DERIVATIVES” (Roche Diagnostics Operations, Inc., priority 2021, published 2024).

Tests used:
[1] = Solubility experiments: successive mixing with water, visual inspection; assay type: physicochemical; details: sonicated 10 s
Description: If solid compound was still visible, this was considered as not dissolved. If no solid compound was visible, this was considered as dissolved.

[2] = Hydrophobicity indicated by reverse phase HPLC (YMC-Triart C18); assay type: physicochemical; details: YMC-Triart C18, 0-100% MeCN in H2O, 0.1% TFA in 25 min; later retention = more hydrophobic
Description: The other way round, an earlier retention corresponded to higher hydrophilie.

[3] = theoretical concentration 0.6 mM
[4] = theoretical concentration 6.0 mM
[5] = theoretical concentration 12.4 mM
[6] = theoretical concentration 16.5 mM
[7] = theoretical concentration 515 mM

dissolved in water (visual inspection) [1, 3] | dissolved in water (visual inspection) [1, 4] | dissolved in water (visual inspection) [1, 5] | dissolved in water (visual inspection) [1, 6] | dissolved in water (visual inspection) [1, 7] | Retention Time [2] | Structure (SMILES)
yes | yes | yes | no | no |  | O=C(CCCC(=O)N1Cc2cc(OC[C@@H](O)CO)ccc2C#Cc2ccc(OC[C@@H](O)CO)cc21)NCCCC(=O)ON1C(=O)CCC1=O [Compound 8]
 |  |  |  |  | 11.58 min | O=C(O)CCCNC(=O)CCCC(=O)N1Cc2cc(OC[C@@H](O)CO)ccc2C#Cc2ccc(OC[C@@H](O)CO)cc21 [Compound 7]
no | no | no | no | no |  | O=C(CCC(=O)N1Cc2ccccc2C#Cc2ccccc21)ON1C(=O)CCC1=O [Compound 32]
no | no | no | no | no | 15.18 min | O=C(O)CCCCC(=O)N1Cc2ccccc2C#Cc2ccccc21 [Compound 31]
